# Target: T1, recombinant human GR (Homo sapiens, UniProt P04150)
# T1 construct: purchased Panvera/Invitrogen P2812 (kit P2893)
# T1 sequence (P04150 1-777): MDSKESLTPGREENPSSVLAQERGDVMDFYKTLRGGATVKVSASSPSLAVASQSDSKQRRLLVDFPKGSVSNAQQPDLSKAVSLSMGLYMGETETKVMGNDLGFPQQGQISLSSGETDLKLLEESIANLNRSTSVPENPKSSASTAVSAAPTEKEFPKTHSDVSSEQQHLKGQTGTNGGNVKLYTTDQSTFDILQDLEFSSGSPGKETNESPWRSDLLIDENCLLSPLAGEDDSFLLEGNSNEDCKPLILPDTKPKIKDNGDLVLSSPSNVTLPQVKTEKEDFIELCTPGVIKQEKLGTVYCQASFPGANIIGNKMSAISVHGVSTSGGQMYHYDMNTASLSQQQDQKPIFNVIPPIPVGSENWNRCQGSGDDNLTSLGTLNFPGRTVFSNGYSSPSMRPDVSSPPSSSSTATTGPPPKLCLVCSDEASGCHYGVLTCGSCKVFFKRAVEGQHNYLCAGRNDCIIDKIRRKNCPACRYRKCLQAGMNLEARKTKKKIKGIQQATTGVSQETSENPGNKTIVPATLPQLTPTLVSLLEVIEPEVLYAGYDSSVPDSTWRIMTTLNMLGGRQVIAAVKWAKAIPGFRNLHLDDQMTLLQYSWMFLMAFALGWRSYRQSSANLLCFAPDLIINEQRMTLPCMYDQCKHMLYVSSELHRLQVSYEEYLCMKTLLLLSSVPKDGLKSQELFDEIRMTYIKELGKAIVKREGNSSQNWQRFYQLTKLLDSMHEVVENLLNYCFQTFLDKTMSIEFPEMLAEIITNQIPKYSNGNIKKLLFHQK
# Experiment: Human Glucocorticoid Receptor (GR) Assay, fluorescence polarization
# Format: binding
# Settings: GS Red tracer, incubated 2 h at r.t., XLfit model 205, read-out: GRhuFL_FP_v2 Mean IC50
# Outline: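 After 2 h dark incubation at r.t., polarization reported displacement of the GS Red tracer from recombinant GR, in buffer with phosphate, molybdate, EDTA, DTT and Stabilizing Peptide. Controls: dexamethasone (100%) and DMSO (0%).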
row,IC50 [nM],Compound
1,2.9,"COc1cccc([C@@H](Oc2ccc3c(cnn3-c3ccc(Cl)cc3)c2)[C@H](C)NC(=O)C(F)(F)F)c1 [Example 126, N-((1R,2S)-1-(1-(4-chlorophenyl)-1H-indazol-5-yloxy)-1-(3-methoxyphenyl)propan-2-yl)-2,2,2-trifluoroacetamide]"
2,3.9,"COc1cccc([C@@H](Oc2ccc3c(cnn3-c3ccc(Cl)cc3)c2)[C@H](C)NC(=O)C(C)(F)F)c1 [Example 128, N-((1R,2S)-1-(1-(4-chlorophenyl)-1H-indazol-5-yloxy)-1-(3-methoxyphenyl)propan-2-yl)-2,2-difluoropropanamide]"
3,11,"CC(C)n1ncc2cc(O[C@H](c3ccccc3)[C@H](C)NC(=O)C(F)(F)F)ccc21 [Example 129, 2,2,2-Trifluoro-N-[(1R,2S)-1-phenyl-1-(1-propan-2-ylindazol-5-yl)oxy-propan-2-yl]acetamide]"
4,2.5,"C[C@H](NC(=O)C(F)(F)F)[C@H](Oc1ccc2c(cnn2C2CCCC2)c1)c1ccccc1 [Example 130, N-[(1R,2S)-1-(1-cyclopentylindazol-5-yl)oxy-1-phenyl-propan-2-yl]-2,2,2-trifluoro-acetamide]"
5,4,"COc1cccc([C@@H](Oc2ccc3c(cnn3-c3ccc(F)cc3)c2)[C@H](C)NC(=O)c2ccc(C)s2)c1 [Example 131, N-[(1R,2S)-1-[1-(4-fluorophenyl)indazol-5-yl]oxy-1-(3-methoxyphenyl)propan-2-yl]-5-methyl-thiophene-2-carboxamide]"
6,4.1,"COc1cccc([C@@H](Oc2ccc3c(cnn3-c3ccc(F)cc3)c2)[C@H](C)NC(=O)c2sccc2C)c1 [Example 132, N-[(1R,2S)-1-[1-(4-fluorophenyl)indazol-5-yl]oxy-1-(3-methoxyphenyl)propan-2-yl]-3-methyl-thiophene-2-carboxamide]"
7,3.3,"COc1cccc([C@@H](Oc2ccc3c(cnn3-c3ccc(F)cc3)c2)[C@H](C)NC(=O)c2cccn2C)c1 [Example 133, N-[(1R,2S)-1-[1-(4-fluorophenyl)indazol-5-yl]oxy-1-(3-methoxyphenyl)propan-2-yl]-1-methyl-pyrrole-2-carboxamide]"
8,3.6,"COc1cccc([C@@H](Oc2ccc3c(cnn3-c3ccc(F)cc3)c2)[C@H](C)NC(=O)c2ccsc2)c1 [Example 134, N-[(1R,2S)-1-[1-(4-fluorophenyl)indazol-5-yl]oxy-1-(3-methoxyphenyl)propan-2-yl]thiophene-3-carboxamide]"
9,3.1,"COc1cccc([C@@H](Oc2ccc3c(cnn3-c3ccc(F)cc3)c2)[C@H](C)NC(=O)c2nccs2)c1 [Example 135, N-[(1R,2S)-1-[1-(4-fluorophenyl)indazol-5-yl]oxy-1-(3-methoxyphenyl)propan-2-yl]1,3-thiazole-2-carboxamide]"
10,3,"COc1cccc([C@@H](Oc2ccc3c(cnn3-c3ccc(F)cc3)c2)[C@H](C)NC(=O)c2cc(C)on2)c1 [Example 136, N-[(1R,2S)-1-[1-(4-fluorophenyl)indazol-5-yl]oxy-1-(3-methoxyphenyl)propan-2-yl]-5-methyl-1,2-oxazole-3-carboxamide]"
11,360,"CC(C)C(=O)NC(=O)C(Oc1ccc2c(cnn2-c2ccc(F)cc2)c1)c1ccccc1 (stereo not shown) [Example 137, N-[2-[1-(4-fluorophenyl)indazol-5-yl]oxy-2-phenyl-acetyl]-2-methyl-propanamide]"
12,4.1,"C[C@H](NC(=O)C1(O)CC1)[C@H](Oc1ccc2c(cnn2-c2ccc(F)cc2)c1)c1ccc(C(F)(F)F)cc1 [Example 139, N-[(1R,2S)-1-[1-(4-fluorophenyl)indazol-5-yl]oxy-1-[4-(trifluoromethyl)phenyl]propan-2-yl]-1-hydroxy-cyclopropane-1-carboxamide]"
13,3.3,"C[C@H](NC(=O)C(F)(F)F)[C@H](Oc1ccc2c(cnn2-c2ccc(CO)cc2)c1)c1ccccc1 [Example 141, 2,2,2-trifluoro-N-((1R,2S)-1-(1-(4-(hydroxymethyl)phenyl)-1H-indazol-5-yloxy)-1-phenylpropan-2-yl)acetamide]"
14,5.6,"C[C@H](NC(=O)C(F)(F)F)[C@H](Oc1ccc2c(cnn2-c2ccc(CN3CCOCC3)cc2)c1)c1ccccc1 [Example 142, 2,2,2-trifluoro-N-((1R,2S)-1-(1-(4-(morpholinomethyl)phenyl)-1H-indazol-5-yloxy)-1-phenylpropan-2-yl)acetamide]"
15,23,"C[C@H](NC(=O)C(F)(F)F)[C@H](Oc1ccc2c(cnn2-c2ccc(CN(C)C)cc2)c1)c1ccccc1 [Example 143, N-((1R,2S)-1-(1-(4-((dimethylamino)methyl)phenyl)-1H-indazol-5-yloxy)-1-phenylpropan-2-yl)-2,2,2-trifluoroacetamide]"
16,3,"C[C@H](NC(=O)C(F)(F)F)[C@H](Oc1ccc2c(cnn2-c2cccc(CO)c2)c1)c1ccccc1 [Example 144, 2,2,2-trifluoro-N-((1R,2S)-1-(1-(3-(hydroxymethyl)phenyl)-1H-indazol-5-yloxy)-1-phenylpropan-2-yl)acetamide]"
17,5.5,"C[C@H](NC(=O)C(F)(F)F)[C@H](Oc1ccc2c(cnn2-c2cccc(CN3CCOCC3)c2)c1)c1ccccc1 [Example 145, 2,2,2-trifluoro-N-((1R,2S)-1-(1-(3-(morpholinomethyl)phenyl)-1H-indazol-5-yloxy)-1-phenylpropan-2-yl)acetamide]"
18,78,"C[C@H](NC(=O)C(F)(F)F)[C@H](Oc1ccc2c(cnn2-c2cccc(CN(C)C)c2)c1)c1ccccc1 [Example 146, N-((1R,2S)-1-(1-(3-((dimethylamino)methyl)phenyl)-1H-indazol-5-yloxy)-1-phenylpropan-2-yl)-2,2,2-trifluoroacetamide]"
19,5.5,"Cc1ccc([C@@H](Oc2ccc3c(cnn3-c3ccc(F)cc3)c2)[C@H](C)NC(=O)C(F)(F)F)cc1C [Example 149, N-[(1R,2S)-1-(3,4-dimethylphenyl)-1-[1-(4-fluorophenyl)indazol-5-yl]oxy-propan-2-yl]-2,2,2-trifluoro-acetamide]"
20,4.6,"C[C@H](NC(=O)C(F)(F)F)[C@H](Oc1ccc2c(cnn2-c2ccc(F)cc2)c1)c1ccc(F)c(F)c1 [Example 150, N-[(1R,2S)-1-(3,4-difluorophenyl)-1-[1-(4-fluorophenyl)indazol-5-yl]oxy-propan-2-yl]-2,2,2-trifluoro-acetamide]"
21,32,"Cc1ccc([C@@H](Oc2ccc3c(cnn3-c3ccc(F)cc3)c2)[C@H](C)NC(=O)C(F)(F)F)cc1F [Example 151, 2,2,2-trifluoro-N-[(1R,2S)-1-(3-fluoro-4-methyl-phenyl)-1-[1-(4-fluorophenyl)indazol-5-yl]oxy-propan-2-yl]acetamide]"
22,3.6,"C[C@H](NC(=O)C(F)(F)F)[C@H](Oc1ccc2c(cnn2-c2ccc(F)cc2)c1)c1cccc(F)c1 [Example 152, 2,2,2-trifluoro-N-[(1R,2S)-1-(3-fluorophenyl)-1-[1-(4-fluorophenyl)indazol-5-yl]oxy-propan-2-yl]acetamide]"
23,3.6,"Cc1ccc(C)c([C@@H](Oc2ccc3c(cnn3-c3ccc(F)cc3)c2)[C@H](C)NC(=O)C(F)(F)F)c1 [Example 153, N-[(1R,2S)-1-(2,5-dimethylphenyl)-1-[1-(4-fluorophenyl)indazol-5-yl]oxy-propan-2-yl]-2,2,2-trifluoro-acetamide]"
24,4.7,"Cc1ccc([C@@H](Oc2ccc3c(cnn3-c3ccc(F)cc3)c2)[C@H](C)NC(=O)C(F)(F)F)c(C)c1 [Example 154, N-[(1R,2S)-1-(2,4-dimethylphenyl)-1-[1-(4-fluorophenyl)indazol-5-yl]oxy-propan-2-yl]-2,2,2-trifluoro-acetamide]"
25,5,"C[C@H](NC(=O)C(F)(F)F)[C@H](Oc1ccc2c(cnn2-c2ccc(F)cc2)c1)c1cccc(Cl)c1 [Example 155, N-[(1R,2S)-1-(3-chlorophenyl)-1-[1-(4-fluorophenyl)indazol-5-yl]oxy-propan-2-yl]-2,2,2-trifluoro-acetamide]"
26,4.2,"Cc1cc(F)ccc1[C@@H](Oc1ccc2c(cnn2-c2ccc(F)cc2)c1)[C@H](C)NC(=O)C(F)(F)F [Example 156, 2,2,2-trifluoro-N-[(1R,2S)-1-(4-fluoro-2-methyl-phenyl)-1-[1-(4-fluorophenyl)indazol-5-yl]oxy-propan-2-yl]acetamide]"
27,5.3,"Cc1ccc(F)cc1[C@@H](Oc1ccc2c(cnn2-c2ccc(F)cc2)c1)[C@H](C)NC(=O)C(F)(F)F [Example 157, 2,2,2-trifluoro-N-[(1R,2S)-1-(5-fluoro-2-methyl-phenyl)-1-[1-(4-fluorophenyl)indazol-5-yl]oxy-propan-2-yl]acetamide]"
28,4.2,"COc1c(C)cc([C@@H](Oc2ccc3c(cnn3-c3ccc(F)cc3)c2)[C@H](C)NC(=O)C(F)(F)F)cc1C [Example 159, 2,2,2-trifluoro-N-[(1R,2S)-1-[1-(4-fluorophenyl)indazol-5-yl]oxy-1-(4-methoxy-3,5-dimethyl-phenyl)propan-2-yl]acetamide]"

# Source: patent US8143290B2, “Chemical compounds 572” (AstraZeneca AB, priority 2006, dated 2012)
